According to US20220411471A1, “CELL-PERMEABLE CYCLIC PEPTIDES AND USES THEREOF” (Unnatural Products Inc., priority 2019, published 2022):
Starred links: 1 amine or outer side, 2 acyl side, 3 side chain; linkers in the order of their positions; H or OH if unused. Non-standard residues stand in square brackets, D forms with d. Residues, ends and D or L forms follow the SMILES beside them. Azetidine3carboxylic = O=C(C1CN([*:1])C1)[*:2]; Phe(4-Cl) = N[C@@H](Cc1ccc(Cl)cc1)C(=O)O; Phe(3-F) = N[C@@H](Cc1cccc(F)c1)C(=O)O; Phe(4-F) = N[C@@H](Cc1ccc(F)cc1)C(=O)O; 3Pal = N[C@@H](Cc1cccnc1)C(=O)O; 2Thi = N[C@@H](Cc1cccs1)C(=O)O; dNMeV = CN[C@@H](C(=O)O)C(C)C; Tle = CC(C)(C)[C@H](N)C(=O)O; NMeV = CN[C@H](C(=O)O)C(C)C; dPip = O=C(O)[C@H]1CCCCN1; NMeA = CN[C@@H](C)C(=O)O; Nme = COCCNCC(=O)O

biological target: T1, Human MDM2 (HDM2) 1-116 (Homo sapiens, UniProt Q00987); assay: Fluorescence polarization assay, MDM2/p53 (Table 3); format: binding
T1 construct: Human MDM2 (HDM2) 1-116
T1 sequence (Q00987 1-116): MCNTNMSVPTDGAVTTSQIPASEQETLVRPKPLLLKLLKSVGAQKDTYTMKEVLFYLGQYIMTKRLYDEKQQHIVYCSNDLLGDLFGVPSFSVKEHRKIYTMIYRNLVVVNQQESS
Method: (§1) Human MDM2 (HDM2) 1-116 (20 μL) and FITC-labeled p53 (18-26), 50 nM and 10 nM respectively in 10 mM Tris, 50 mM NaCl, 0.01% Tween20, and 1 mM DTT at pH 7.4 were dispensed into an opaque, black, 384 well plate. Compounds dissolved in DMSO were pin transferred (˜200 nL) to the 384 well plate containing the MDM2/p53 solution. After incubation for 10 minutes, the fluorescence polarization was read on a Molecular Devices SpectraMax plate reader equipped with a Fluorescein FP cartridge. In addition to probe alone (positive control) and probe/MDM2 (negative control), a titration of linear p53(18-26) was included on every plate as an additional control. IC50 values were fit using either Prism or Collaborative Drug Discovery.
as §1, with “and FAM-labeled RFMDYWEGL-NH2,” for “and FITC-labeled p53 (18-26),”, “NaCl, 0.010%” for “NaCl, 0.01%”, “transferred (˜100-200” for “transferred (˜200”, “for 60” for “for 10”

| SMILES | IC50 [nM] |
| --- | --- |
| C[C@H]1C(=O)N[C@@H](Cc2ccc(F)cc2)C(=O)N[C@@H](C(C)(C)C)C(=O)N[C@@H](Cc2ccc(Cl)cc2)C(=O)N2CCCC[C@@H]2C(=O)N2CCC[C@H]2C(=O)N[C@@H](Cc2ccccc2)C(=O)N2CC(C2)C(=O)N[C@@H](Cc2cccnc2)C(=O)N2CCC[C@@H]2C(=O)N1C [Compound 19, C[C@@H]1N(C)C(=O)[C@H]2CCCN2C(=O)[C@H](Cc2cccnc2)NC(=O)C2CN(C2)C(=O)[C@H](Cc2ccccc2)NC(=O)[C@@H]2CCCN2C(=O)[C@H]2CCCCN2C(=O)[C@H](Cc2ccc(Cl)cc2)NC(=O)[C@@H](NC(=O)[C@H](Cc2ccc(F)cc2)NC1=O)C(C)(C)C] (cyclo([3Pal][dP][NMeA][Phe(4-F)][Tle][Phe(4-Cl)][dPip]PF[Azetidine3carboxylic])) | < 1000 |
| COCCN1CC(=O)N(C)[C@@H](C)C(=O)N[C@@H](Cc2ccc(F)cc2)C(=O)N(C)[C@@H](C)C(=O)N[C@@H](Cc2ccc(Cl)cc2)C(=O)N2CCCC[C@@H]2C(=O)N2CCC[C@H]2C(=O)N[C@@H](Cc2ccccc2)C(=O)N[C@@H](C(C)(C)C)C(=O)N[C@@H](Cc2cccc(F)c2)C1=O [Compound 22, COCCN1CC(=O)N(C)[C@@H](C)C(=O)N[C@@H](Cc2ccc(F)cc2)C(=O)N(C)[C@@H](C)C(=O)N[C@@H](Cc2ccc(Cl)cc2)C(=O)N2CCCC[C@@H]2C(=O)N2CCC[C@H]2C(=O)N[C@@H](Cc2ccccc2)C(=O)N[C@H](C(=O)N[C@@H](Cc2cccc(F)c2)C1=O)C(C)(C)C] (cyclo(F[Tle][Phe(3-F)][Nme][NMeA][Phe(4-F)][NMeA][Phe(4-Cl)][dPip]P)) | 1000 to 2500 |
| COCCN1CC(=O)N(C)[C@@H](C)C(=O)N[C@@H](Cc2ccc(F)cc2)C(=O)N(C)[C@@H](C)C(=O)N[C@@H](Cc2ccc(Cl)cc2)C(=O)N(C)[C@H](C(C)C)C(=O)N2CCC[C@H]2C(=O)N[C@@H](Cc2ccccc2)C(=O)N[C@@H](C(C)(C)C)C(=O)N[C@@H](Cc2cccnc2)C1=O [Compound 23, COCCN1CC(=O)N(C)[C@@H](C)C(=O)N[C@@H](Cc2ccc(F)cc2)C(=O)N(C)[C@@H](C)C(=O)N[C@@H](Cc2ccc(Cl)cc2)C(=O)N(C)[C@H](C(C)C)C(=O)N2CCC[C@H]2C(=O)N[C@@H](Cc2ccccc2)C(=O)N[C@H](C(=O)N[C@@H](Cc2cccnc2)C1=O)C(C)(C)C] (cyclo([3Pal][Nme][NMeA][Phe(4-F)][NMeA][Phe(4-Cl)][dNMeV]PF[Tle])) | < 1000 |
| COCCN1CC(=O)N(C)[C@@H](C)C(=O)N[C@@H](Cc2ccc(F)cc2)C(=O)N(C)[C@@H](C)C(=O)N[C@@H](Cc2ccc(Cl)cc2)C(=O)N(C)[C@H](C(C)C)C(=O)N2CCC[C@H]2C(=O)N[C@@H](Cc2ccccc2)C(=O)N[C@@H](C(C)(C)C)C(=O)N[C@@H](Cc2cccc(F)c2)C1=O [Compound 24, COCCN1CC(=O)N(C)[C@@H](C)C(=O)N[C@@H](Cc2ccc(F)cc2)C(=O)N(C)[C@@H](C)C(=O)N[C@@H](Cc2ccc(Cl)cc2)C(=O)N(C)[C@H](C(C)C)C(=O)N2CCC[C@H]2C(=O)N[C@@H](Cc2ccccc2)C(=O)N[C@H](C(=O)N[C@@H](Cc2cccc(F)c2)C1=O)C(C)(C)C] (cyclo(F[Tle][Phe(3-F)][Nme][NMeA][Phe(4-F)][NMeA][Phe(4-Cl)][dNMeV]P)) | 1000 to 2500 |
| C[C@H]1C(=O)N[C@@H](Cc2ccc(Cl)cc2)C(=O)N2CCCC[C@@H]2C(=O)N2CCC[C@H]2C(=O)N[C@@H](Cc2ccccc2)C(=O)N[C@@H](C(C)(C)C)C(=O)N[C@@H](Cc2cccnc2)C(=O)N2CCCC[C@@H]2C(=O)N(C)[C@@H](C)C(=O)N[C@@H](Cc2ccc(F)cc2)C(=O)N1C [Compound 28, C[C@@H]1N(C)C(=O)[C@H]2CCCCN2C(=O)[C@H](Cc2cccnc2)NC(=O)[C@@H](NC(=O)[C@H](Cc2ccccc2)NC(=O)[C@@H]2CCCN2C(=O)[C@H]2CCCCN2C(=O)[C@H](Cc2ccc(Cl)cc2)NC(=O)[C@H](C)N(C)C(=O)[C@H](Cc2ccc(F)cc2)NC1=O)C(C)(C)C] (cyclo([3Pal][dPip][NMeA][Phe(4-F)][NMeA][Phe(4-Cl)][dPip]PF[Tle])) | 1000 to 2500 |
| COCCN1CC(=O)N(C)[C@@H](C)C(=O)N[C@@H](Cc2ccc(F)cc2)C(=O)N[C@@H](C(C)(C)C)C(=O)N[C@@H](Cc2ccc(Cl)cc2)C(=O)N2CCCC[C@@H]2C(=O)N2CCC[C@H]2C(=O)N[C@@H](Cc2ccccc2)C(=O)N[C@@H](C(C)(C)C)C(=O)N[C@@H](Cc2cccnc2)C1=O [Compound 29, COCCN1CC(=O)N(C)[C@@H](C)C(=O)N[C@@H](Cc2ccc(F)cc2)C(=O)N[C@H](C(=O)N[C@@H](Cc2ccc(Cl)cc2)C(=O)N2CCCC[C@@H]2C(=O)N2CCC[C@H]2C(=O)N[C@@H](Cc2ccccc2)C(=O)N[C@H](C(=O)N[C@@H](Cc2cccnc2)C1=O)C(C)(C)C)C(C)(C)C] (cyclo([3Pal][Nme][NMeA][Phe(4-F)][Tle][Phe(4-Cl)][dPip]PF[Tle])) | < 1000 |
| COCCN1CC(=O)N(C)[C@@H](C)C(=O)N[C@@H](Cc2ccc(F)cc2)C(=O)N(C)[C@@H](C)C(=O)N[C@@H](Cc2ccc(Cl)cc2)C(=O)N2CCCC[C@@H]2C(=O)N2CCC[C@H]2C(=O)N[C@@H](Cc2ccccc2)C(=O)N[C@@H](C(C)(C)C)C(=O)N[C@@H](Cc2ccc(O)cc2)C1=O [Compound 30, [H]Oc1ccc(C[C@@H]2NC(=O)[C@@H](NC(=O)[C@H](Cc3ccccc3)NC(=O)[C@@H]3CCCN3C(=O)[C@H]3CCCCN3C(=O)[C@H](Cc3ccc(Cl)cc3)NC(=O)[C@H](C)N(C)C(=O)[C@H](Cc3ccc(F)cc3)NC(=O)[C@H](C)N(C)C(=O)CN(CCOC)C2=O)C(C)(C)C)cc1] (cyclo(F[Tle]Y[Nme][NMeA][Phe(4-F)][NMeA][Phe(4-Cl)][dPip]P)) | 2500 to 5000 |

Now from value to compound:

| IC50 [nM] | SMILES |
| --- | --- |
| < 1000 | COCCN1CC(=O)N(C)[C@@H](C)C(=O)N[C@@H](Cc2ccc(F)cc2)C(=O)N(C)[C@@H](C)C(=O)N[C@@H](Cc2ccc(Cl)cc2)C(=O)N2CCCC[C@@H]2C(=O)N2CCC[C@H]2C(=O)N[C@@H](Cc2cccs2)C(=O)N[C@@H](C(C)(C)C)C(=O)N[C@@H](Cc2cccnc2)C1=O [Compound 20, COCCN1CC(=O)N(C)[C@@H](C)C(=O)N[C@@H](Cc2ccc(F)cc2)C(=O)N(C)[C@@H](C)C(=O)N[C@@H](Cc2ccc(Cl)cc2)C(=O)N2CCCC[C@@H]2C(=O)N2CCC[C@H]2C(=O)N[C@@H](Cc2cccs2)C(=O)N[C@H](C(=O)N[C@@H](Cc2cccnc2)C1=O)C(C)(C)C] (cyclo([2Thi][Tle][3Pal][Nme][NMeA][Phe(4-F)][NMeA][Phe(4-Cl)][dPip]P)) |
| 1000 to 2500 | COCCN1CC(=O)N(C)[C@@H](C)C(=O)N[C@@H](Cc2ccc(F)cc2)C(=O)N(C)[C@@H](C)C(=O)N[C@@H](Cc2ccc(Cl)cc2)C(=O)N2CCCC[C@@H]2C(=O)N2CCC[C@H]2C(=O)N[C@@H](Cc2ccccc2)C(=O)N[C@@H](C(C)(C)C)C(=O)N[C@@H](Cc2cccnc2)C1=O [Compound 21, COCCN1CC(=O)N(C)[C@@H](C)C(=O)N[C@@H](Cc2ccc(F)cc2)C(=O)N(C)[C@@H](C)C(=O)N[C@@H](Cc2ccc(Cl)cc2)C(=O)N2CCCC[C@@H]2C(=O)N2CCC[C@H]2C(=O)N[C@@H](Cc2ccccc2)C(=O)N[C@H](C(=O)N[C@@H](Cc2cccnc2)C1=O)C(C)(C)C] (cyclo([3Pal][Nme][NMeA][Phe(4-F)][NMeA][Phe(4-Cl)][dPip]PF[Tle])) |
| < 1000 | COCCN1CC(=O)N[C@@H](Cc2ccc(Cl)cc2)C(=O)N2CCCC[C@@H]2C(=O)N2CCC[C@H]2C(=O)N[C@@H](Cc2cccs2)C(=O)N[C@@H](C(C)(C)C)C(=O)N[C@@H](Cc2cccnc2)C(=O)N2CCC[C@@H]2C(=O)N(C)[C@@H](C)C(=O)N[C@@H](Cc2ccc(F)cc2)C1=O [Compound 25, COCCN1CC(=O)N[C@@H](Cc2ccc(Cl)cc2)C(=O)N2CCCC[C@@H]2C(=O)N2CCC[C@H]2C(=O)N[C@@H](Cc2cccs2)C(=O)N[C@H](C(=O)N[C@@H](Cc2cccnc2)C(=O)N2CCC[C@@H]2C(=O)N(C)[C@@H](C)C(=O)N[C@@H](Cc2ccc(F)cc2)C1=O)C(C)(C)C] (cyclo([2Thi][Tle][3Pal][dP][NMeA][Phe(4-F)][Nme][Phe(4-Cl)][dPip]P)) |
| < 1000 | C[C@H]1C(=O)N[C@@H](Cc2cccnc2)C(=O)N2CCC[C@@H]2C(=O)N(C)[C@@H](C)C(=O)N[C@@H](Cc2ccc(F)cc2)C(=O)N[C@@H](C(C)(C)C)C(=O)N[C@@H](Cc2ccc(Cl)cc2)C(=O)N2CCCC[C@@H]2C(=O)N2CCC[C@H]2C(=O)N[C@@H](Cc2ccccc2)C(=O)N1C [Compound 26, C[C@@H]1N(C)C(=O)[C@H]2CCCN2C(=O)[C@H](Cc2cccnc2)NC(=O)[C@H](C)N(C)C(=O)[C@H](Cc2ccccc2)NC(=O)[C@@H]2CCCN2C(=O)[C@H]2CCCCN2C(=O)[C@H](Cc2ccc(Cl)cc2)NC(=O)[C@@H](NC(=O)[C@H](Cc2ccc(F)cc2)NC1=O)C(C)(C)C] (cyclo([3Pal][dP][NMeA][Phe(4-F)][Tle][Phe(4-Cl)][dPip]PF[NMeA])) |
| 1000 to 2500 | CC(C)[C@H]1C(=O)N[C@@H](Cc2cccnc2)C(=O)N2CCC[C@@H]2C(=O)N(C)[C@@H](C)C(=O)N[C@@H](Cc2ccc(F)cc2)C(=O)N[C@@H](C(C)(C)C)C(=O)N[C@@H](Cc2ccc(Cl)cc2)C(=O)N2CCCC[C@@H]2C(=O)N2CCC[C@H]2C(=O)N[C@@H](Cc2ccccc2)C(=O)N1C [Compound 27, CC(C)[C@@H]1N(C)C(=O)[C@H](Cc2ccccc2)NC(=O)[C@@H]2CCCN2C(=O)[C@H]2CCCCN2C(=O)[C@H](Cc2ccc(Cl)cc2)NC(=O)[C@@H](NC(=O)[C@H](Cc2ccc(F)cc2)NC(=O)[C@H](C)N(C)C(=O)[C@H]2CCCN2C(=O)[C@H](Cc2cccnc2)NC1=O)C(C)(C)C] (cyclo([3Pal][dP][NMeA][Phe(4-F)][Tle][Phe(4-Cl)][dPip]PF[NMeV])) |
